{"source": "patent US11078170B2", "about": "(Assembly Biosciences, Inc., priority 2017, dated 2021)", "data": [{"test_system": "HBV viral production from HepAD38 cells", "experiment": "Activity of test compounds on viral production from HepAD38 cells (viral load by qPCR of HBV core sequence in supernatant)", "format": "cell-based", "conditions": "Hepatitis B virus, 120 h, 5 days incubation, HBV DNA in supernatant by qPCR, top concentration 10 μM, read-out: Viral Load EC50 Activity range", "in_short": "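EC50 and CC50 come from four-parameter fits of supernatant viral load and CellTiter-Glo viability, respectively. Viral load was measured by core-region TaqMan qPCR against HBV DNA standards and compared with DMSO controls. Tet-free HepAD38 cells (50,000/well, 2% FBS) were exposed to compound, highest 10 μM, for 5 days at 37° C.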", "units": {"EC50": "nM"}, "values": [{"smiles": "CN1C(C(=O)Nc2ccc(F)c(Cl)c2)CC(c2ccc(-c3ccc(Br)c(F)c3)s2)NS1(=O)=O", "note": "(stereo not drawn) [HBV-CSU-157, Cis-N-(3-chloro-4-fluorophenyl)-5-(5-(4-bromo-3-fluorophenyl)thiophen-2-yl)-2-methyl-1,2,6-thiadiazinane-3-carboxamide 1,1-dioxide]", "EC50": "1000 to 5000"}, {"smiles": "CN1[C@H](C(=O)Nc2ccc(F)c(Cl)c2)C[C@H](c2ccc(-c3ccc(C(F)(F)F)nc3)s2)NS1(=O)=O", "note": "[HBV-CSU-158-ISO-I, Cis-N-(3-chloro-4-fluorophenyl)-2-methyl-5-(5-(6-(trifluoromethyl)pyridin-3-yl)thiophen-2-yl)-1,2,6-thiadiazinane-3-carboxamide 1,1-dioxide]", "EC50": "< 1000"}, {"smiles": "CN1[C@@H](C(=O)Nc2ccc(F)c(Cl)c2)C[C@@H](c2ccc(-c3ccc(C(F)(F)F)nc3)s2)NS1(=O)=O", "note": "[HBV-CSU-158-ISO-II, Cis-N-(3-chloro-4-fluorophenyl)-2-methyl-5-(5-(6-(trifluoromethyl)pyridin-3-yl)thiophen-2-yl)-1,2,6-thiadiazinane-3-carboxamide 1,1-dioxide]", "EC50": "> 5000"}, {"smiles": "CN1[C@@H](C(=O)Nc2ccc(F)c(Cl)c2)C[C@@H](c2ccc(-c3cccnc3)s2)NS1(=O)=O", "note": "[HBV-CSU-159-ISO-I, Cis-N-(3-chloro-4-fluorophenyl)-2-methyl-5-(5-(pyridin-3-yl)thiophen-2-yl)-1,2,6-thiadiazinane-3-carboxamide 1,1-dioxide]", "EC50": "1000 to 5000"}, {"smiles": "CN1[C@H](C(=O)Nc2ccc(F)c(Cl)c2)C[C@H](c2ccc(-c3cccnc3)s2)NS1(=O)=O", "note": "[HBV-CSU-159-ISO-II, Cis-N-(3-chloro-4-fluorophenyl)-2-methyl-5-(5-(pyridin-3-yl)thiophen-2-yl)-1,2,6-thiadiazinane-3-carboxamide 1,1-dioxide]", "EC50": "< 1000"}, {"smiles": "CN1[C@H](C(=O)Nc2ccc(F)c(Cl)c2)C[C@H](c2ccc(-c3ccccn3)s2)NS1(=O)=O", "note": "[HBV-CSU-160-ISO-I, Cis-N-(3-chloro-4-fluorophenyl)-2-methyl-5-(5-(pyridin-2-yl)thiophen-2-yl)-1,2,6-thiadiazinane-3-carboxamide 1,1-dioxide]", "EC50": "< 1000"}, {"smiles": "CN1[C@@H](C(=O)Nc2ccc(F)c(Cl)c2)C[C@@H](c2ccc(-c3ccccn3)s2)NS1(=O)=O", "note": "[HBV-CSU-160-ISO-II, Cis-N-(3-chloro-4-fluorophenyl)-2-methyl-5-(5-(pyridin-2-yl)thiophen-2-yl)-1,2,6-thiadiazinane-3-carboxamide 1,1-dioxide]", "EC50": "1000 to 5000"}, {"smiles": "CN1[C@H](C(=O)Nc2ccc(F)c(Cl)c2)C[C@H](c2ccc(-c3cnn(C)c3)s2)NS1(=O)=O", "note": "[HBV-CSU-161-ISO-I, Cis-N-(3-chloro-4-fluorophenyl)-2-methyl-5-(5-(1-methyl-1H-pyrazol-4-yl)thiophen-2-yl)-1,2,6-thiadiazinane-3-carboxamide 1,1-dioxide]", "EC50": "< 1000"}, {"smiles": "CN1[C@@H](C(=O)Nc2ccc(F)c(Cl)c2)C[C@@H](c2ccc(-c3cnn(C)c3)s2)NS1(=O)=O", "note": "[HBV-CSU-161-ISO-II, Cis-N-(3-chloro-4-fluorophenyl)-2-methyl-5-(5-(1-methyl-1H-pyrazol-4-yl)thiophen-2-yl)-1,2,6-thiadiazinane-3-carboxamide 1,1-dioxide]", "EC50": "1000 to 5000"}, {"smiles": "CN1C(C(=O)Nc2ccc(F)c(Cl)c2)CC(c2ccc(-c3cccs3)s2)NS1(=O)=O", "note": "(stereo not drawn) [HBV-CSU-162, Cis-N-5-([2,2′-bithiophen]-5-yl)-N-(3-chloro-4-fluorophenyl)-2-methyl-1,2,6-thiadiazinane-3-carboxamide 1,1-dioxide]", "EC50": "< 1000"}, {"smiles": "CN1[C@H](C(=O)Nc2ccc(F)c(Cl)c2)C[C@H](c2ccc(-c3cccs3)s2)NS1(=O)=O", "note": "[HBV-CSU-162-ISO-I, Cis-N-5-([2,2′-bithiophen]-5-yl)-N-(3-chloro-4-fluorophenyl)-2-methyl-1,2,6-thiadiazinane-3-carboxamide 1,1-dioxide]", "EC50": "< 1000"}, {"smiles": "CN1[C@@H](C(=O)Nc2ccc(F)c(Cl)c2)C[C@@H](c2ccc(-c3cccs3)s2)NS1(=O)=O", "note": "[HBV-CSU-162-ISO-II, Cis-N-5-([2,2′-bithiophen]-5-yl)-N-(3-chloro-4-fluorophenyl)-2-methyl-1,2,6-thiadiazinane-3-carboxamide 1,1-dioxide]", "EC50": "1000 to 5000"}, {"smiles": "CN1[C@H](C(=O)Nc2ccc(F)c(Cl)c2)C[C@H](c2ccc(-c3ccc(NS(C)(=O)=O)cc3)s2)NS1(=O)=O", "note": "[HBV-CSU-163-ISO-I, Cis-N-(3-chloro-4-fluorophenyl)-2-methyl-5-(5-(4-(methylsulfonamido)phenyl)thiophen-2-yl)-1,2,6-thiadiazinane-3-carboxamide 1,1-dioxide]", "EC50": "< 1000"}, {"smiles": "CN1[C@H](C(=O)Nc2ccc(F)c(Cl)c2)C[C@H](c2cc(-c3ccc(C#N)c(F)c3)cs2)NS1(=O)=O", "note": "[HBV-CSU-164-ISO-I, Cis-N-(3-chloro-4-fluorophenyl)-5-(4-(4-cyano-3-fluorophenyl)thiophen-2-yl)-2-methyl-1,2,6-thiadiazinane-3-carboxamide 1,1-dioxide]", "EC50": "< 1000"}, {"smiles": "CN1[C@@H](C(=O)Nc2ccc(F)c(Cl)c2)C[C@@H](c2cc(-c3ccc(C#N)c(F)c3)cs2)NS1(=O)=O", "note": "[HBV-CSU-164-ISO-II, Cis-N-(3-chloro-4-fluorophenyl)-5-(4-(4-cyano-3-fluorophenyl)thiophen-2-yl)-2-methyl-1,2,6-thiadiazinane-3-carboxamide 1,1-dioxide]", "EC50": "> 5000"}, {"smiles": "CN1[C@H](C(=O)Nc2ccc(F)c(Cl)c2)C[C@H](c2cc(-c3ccc(C(F)(F)F)nc3)cs2)NS1(=O)=O", "note": "[HBV-CSU-166-ISO-I, Cis-N-(3-chloro-4-fluorophenyl)-2-methyl-5-(4-(6-(trifluoromethyl)pyridin-3-yl)thiophen-2-yl)-1,2,6-thiadiazinane-3-carboxamide 1,1-dioxide]", "EC50": "< 1000"}, {"smiles": "CN1[C@@H](C(=O)Nc2ccc(F)c(Cl)c2)C[C@@H](c2cc(-c3ccc(C(F)(F)F)nc3)cs2)NS1(=O)=O", "note": "[HBV-CSU-166-ISO-II, Cis-N-(3-chloro-4-fluorophenyl)-2-methyl-5-(4-(6-(trifluoromethyl)pyridin-3-yl)thiophen-2-yl)-1,2,6-thiadiazinane-3-carboxamide 1,1-dioxide]", "EC50": "> 5000"}, {"smiles": "CN1[C@H](C(=O)Nc2ccc(F)c(Cl)c2)C[C@H](c2cc(-c3cccnc3)cs2)NS1(=O)=O", "note": "[HBV-CSU-167-ISO-I, Cis-N-(3-chloro-4-fluorophenyl)-2-methyl-5-(4-(pyridin-3-yl)thiophen-2-yl)-1,2,6-thiadiazinane-3-carboxamide 1,1-dioxide]", "EC50": "< 1000"}, {"smiles": "CN1[C@@H](C(=O)Nc2ccc(F)c(Cl)c2)C[C@@H](c2cc(-c3cccnc3)cs2)NS1(=O)=O", "note": "[HBV-CSU-167-ISO-II, Cis-N-(3-chloro-4-fluorophenyl)-2-methyl-5-(4-(pyridin-3-yl)thiophen-2-yl)-1,2,6-thiadiazinane-3-carboxamide 1,1-dioxide]", "EC50": "> 5000"}, {"smiles": "CN1[C@@H](C(=O)Nc2ccc(F)c(Cl)c2)C[C@@H](c2cc(-c3ccccn3)cs2)NS1(=O)=O", "note": "[HBV-CSU-168-ISO-I, Cis-N-(3-chloro-4-fluorophenyl)-2-methyl-5-(4-(pyridin-2-yl)thiophen-2-yl)-1,2,6-thiadiazinane-3-carboxamide 1,1-dioxide]", "EC50": "1000 to 5000"}, {"smiles": "CN1[C@H](C(=O)Nc2ccc(F)c(Cl)c2)C[C@H](c2cc(-c3ccccn3)cs2)NS1(=O)=O", "note": "[HBV-CSU-168-ISO-II, Cis-N-(3-chloro-4-fluorophenyl)-2-methyl-5-(4-(pyridin-2-yl)thiophen-2-yl)-1,2,6-thiadiazinane-3-carboxamide 1,1-dioxide]", "EC50": "< 1000"}, {"smiles": "CN1[C@H](C(=O)Nc2ccc(F)c(Cl)c2)C[C@H](c2cc(-c3cnn(C)c3)cs2)NS1(=O)=O", "note": "[HBV-CSU-169-ISO-I, Cis-N-(3-chloro-4-fluorophenyl)-2-methyl-5-(4-(1-methyl-1H-pyrazol-4-yl)thiophen-2-yl)-1,2,6-thiadiazinane-3-carboxamide 1,1-dioxide]", "EC50": "< 1000"}, {"smiles": "CN1[C@@H](C(=O)Nc2ccc(F)c(Cl)c2)C[C@@H](c2cc(-c3cnn(C)c3)cs2)NS1(=O)=O", "note": "[HBV-CSU-169-ISO-II, Cis-N-(3-chloro-4-fluorophenyl)-2-methyl-5-(4-(1-methyl-1H-pyrazol-4-yl)thiophen-2-yl)-1,2,6-thiadiazinane-3-carboxamide 1,1-dioxide]", "EC50": "1000 to 5000"}, {"smiles": "CN1[C@@H](C(=O)Nc2ccc(F)c(Cl)c2)C[C@@H](c2cc(-c3cccs3)cs2)NS1(=O)=O", "note": "[HBV-CSU-170-ISO-II]", "EC50": "< 1000"}, {"smiles": "CN1[C@H](C(=O)Nc2ccc(F)c(Cl)c2)C[C@H](c2cc(-c3cccs3)cs2)NS1(=O)=O", "note": "[HBV-CSU-170-ISO-I]", "EC50": "< 1000"}, {"smiles": "CN1C(C(=O)Nc2ccc(F)c(Cl)c2)CC(c2cc(-c3cccs3)cs2)NS1(=O)=O", "note": "(centres unmarked) [HBV-CSU-170]", "EC50": "< 1000"}, {"smiles": "CN1C(C(=O)Nc2ccc(F)c(Cl)c2)CC(c2cc(-c3ccc(NS(C)(=O)=O)cc3)cs2)NS1(=O)=O", "note": "(stereo not drawn) [HBV-CSU-171, Cis-N-(3-chloro-4-fluorophenyl)-2-methyl-5-(4-(4-(methylsulfonamido)phenyl)thiophen-2-yl)-1,2,6-thiadiazinane-3-carboxamide 1,1-dioxide]", "EC50": "< 1000"}, {"smiles": "CN1[C@H](C(=O)Nc2ccc(F)c(Cl)c2)C[C@H](c2ncc(-c3ccc(Br)c(F)c3)s2)NS1(=O)=O", "note": "[HBV-CSU-173-ISO-I, Cis-5-(5-(4-Bromo-3-fluorophenyl)thiazol-2-yl)-N-(3-chloro-4-fluorophenyl)-2-methyl-1,2,6-thiadiazinane-3-carboxamide 1,1-dioxide]", "EC50": "< 1000"}, {"smiles": "CN1[C@@H](C(=O)Nc2ccc(F)c(Cl)c2)C[C@@H](c2ncc(-c3ccc(Br)c(F)c3)s2)NS1(=O)=O", "note": "[HBV-CSU-173-ISO-II, Cis-5-(5-(4-Bromo-3-fluorophenyl)thiazol-2-yl)-N-(3-chloro-4-fluorophenyl)-2-methyl-1,2,6-thiadiazinane-3-carboxamide 1,1-dioxide]", "EC50": "> 5000"}]}]}
